Patent publication US12509430B2, “Inhibitors of nicotinamide N-methyltransferase, compositions and uses thereof” (President and Fellows of Harvard College, priority 2020, dated 2025)
Like-named read-outs stand apart in the source and are kept apart here.

Columns and labels:
[1] = target: T1, recombinant human NNMT (Homo sapiens, UniProt P40261); test: in vitro NNMT enzyme inhibition assay (Promega MTase-Glo Methyltransferase Assay); format: biochemical
T1 sequence (P40261 1-264): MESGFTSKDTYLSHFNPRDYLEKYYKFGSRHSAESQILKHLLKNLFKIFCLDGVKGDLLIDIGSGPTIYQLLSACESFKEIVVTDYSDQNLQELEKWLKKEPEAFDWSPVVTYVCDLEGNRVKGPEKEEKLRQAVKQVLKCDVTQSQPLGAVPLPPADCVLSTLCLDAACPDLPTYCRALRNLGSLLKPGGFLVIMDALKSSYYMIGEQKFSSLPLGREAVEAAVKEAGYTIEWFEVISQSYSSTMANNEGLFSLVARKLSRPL
Description: NNMT biochemical activity for was evaluated using the Promega Mtase-Glo Methyltransferase Assay kit. Assays were performed in a white, flat-bottomed 96 well plate. […] Reactions were performed for 20 minutes at room temperature. MTase-Glo reagent and MTase-Glo detection solution were added according to manufacturer's instructions and luminescence signal measured with a SpectraMax i3 plate reader and data analyzed with GraphPad Prism version 8. FIG. 14 depicts a visual summary of the Promega MTase-Glo Methyltransferase assay used to assess biochemical activity of novel inhibitors.

[2] = target: T2, NNMT in K562 cells (Homo sapiens, UniProt P40261); test: Cellular inhibition of NNMT in K562 cells by 1-MNA quantification; format: cell-based
T2 construct: In K562 cells, which express NNMT; host or cells: K562
T2 sequence (P40261 1-264): T1 sequence (P40261 1-264)
Description: Cellular activity was measured in K562 (ATCC) cells via measuring (1-methyl nicotinamide) 1-MNA levels after compound incubation at varying concentrations overnight. […] Cells were collected by pipetting and extracted with 200 ul acetonitrile containing internal deuterated standard 10 ng/ml d4-1-MNA. […] The mobile phase A was 2.5 mM ammonium formate in water, and mobile phase B was methanol with 0.1% formic acid, delivered at 0.25 mL/min. The capillary voltage was set to 2400V and the nozzle at 300V. The drying gas temperature was 240° C., the drying gas flow rate was 4 L/min, and the nebulizer pressure was 40 psi. The mass spectrometer was run in multiple reaction monitoring mode.
(§1) All cells were cultured at 37° C. in a humidified incubator buffered with 5% CO2. K562 cells were maintained in RPMI supplemented with 10% fetal bovine serum (FBS). Ovarian CAFs were maintained in MSC-Gro Vitroplus III for proliferation and in DMEM containing 10 μM methionine with 10% dialyzed FBS for experiments. K562 were purchased from ATCC. Ovarian CAFs were purchased from Neuromics.

[3] = target: T3, NNMT in ovarian CAFs (Homo sapiens, UniProt P40261); test: 1-MNA quantification in ovarian cancer associated fibroblasts; format: cell-based; settings: 1 μM, six day continuous treatment
T3 construct: host or cells: ovarian cancer-associated fibroblasts
T3 sequence (P40261 1-264): T1 sequence (P40261 1-264)
Description: as §1
1-MNA quantification in ovarian CAFs (Neuromics) was performed similarly as in K562 cells, except cells were scraped off the plate in PBS buffer after a six day continuous treatment with compound and then extracted.

[4] = system: Ovarian Cancer Associated Fibroblasts (CAF) markers; test: CAF markers in ovarian CAFs (gel electrophoresis); format: cell-based, human; settings: incubation with compound, FIG. 5
Description: as §1

[5] = Microsomal stability, human microsomes with NADPH (Phase I); format: in vitro ADME; settings: human liver microsomes; for CLhep predicted at 2 μM: read-out: Predicted hepatic Clint; for CLint scaled at 2 μM: read-out: Scaled-up CLint
Description: (§2) The metabolism of Compounds 4 and 13 was evaluated using a microsomal stability assay. Briefly, a master solution was prepared according to Tables 5 and 6.
(§3) The final concentrations of NADPH was 1 mM. […] Samples with NADPH were prepared in duplicate. Negative controls were prepared in singlet.
(§4) Verapamil was used as positive control in this study. The final concentration of test compound or control compound was 2 μM.
(§5) Aliquots of 50 μL were taken from the reaction solution at 0, 15, 30, 45 and 60 minutes.

[6] = Microsomal stability, mouse microsomes with NADPH (Phase I); format: in vitro ADME; settings: mouse liver microsomes; for CLhep predicted at 2 μM: read-out: Predicted hepatic Clint; for CLint scaled at 2 μM: read-out: Scaled-up CLint
Description: as §2, §3, §4, §5

[7] = Microsomal stability, human microsomes with NADPH and UDPGA (Phase II); format: in vitro ADME; settings: human liver microsomes, NADPH & UDPGA
Description: as §2
(§6) For the assay with NADPH and UDPGA (Phase II), 40 μL of 10 mM NADPH solution and 40 μL of 20 mM UDPGA solution were added to each well. The final concentrations of NADPH and UDPGA were 1 mM and 2 mM. […] The negative control samples were prepared by replacing cofactors (NADPH and UDPGA) solution with 80 μL of ultra-pure H2O. Samples with cofactors were prepared in duplicate. Negative controls were prepared in singlet.
(§7) The reaction was started with the addition of 2 μL of 400 μM control compound or test compound solutions. Diclofenac was used as positive control in this study. The final concentration of test compound or control compound was 2 μM.
as §5

[8] = Microsomal stability, mouse microsomes with NADPH and UDPGA (Phase II); format: in vitro ADME; settings: mouse liver microsomes, NADPH & UDPGA
Description: as §2, §6, §7, §5

[9] = system: 1-Methylnicotinamide (1-MNA); test: In vivo pharmacodynamics, plasma 1-MNA in female C57B16/N mice after inhibitor dosing; design: species or system mouse
Description: 1-Methylnicotinamide (1-MNA) concentrations were also determined.
Then the samples were vortexed for 30 s.

[10] = In vivo pharmacokinetics, plasma concentration of inhibitor in female C57B16/N mice
Description: Doses were freshly prepared on the day of dosing.

[11] = system: U2OS; test: Cellular Activity IC50 (U2OS); format: cell-based; settings: Homo sapiens
[12] = system: 3T3L-1; test: Cellular Activity IC50 (3T3L-1); format: cell-based; settings: Mus musculus, 3T3-L1
[13] = K562, read-out: Cellular Activity IC50 (K562)
[14] = read-out: Predicted hepatic Clint
[15] = plasma 1-MNA after inhibitor IV 1 mg/kg
[16] = plasma 1-MNA after inhibitor PO 10 mg/kg
[17] = plasma 1-MNA after inhibitor PO 50 mg/kg
[18] = IV 1 mg/kg, female C57B16/N mice
[19] = PO 10 mg/kg, female C57B16/N mice, plasma
[20] = PO 50 mg/kg, female C57B16/N mice, plasma
[21] = female, C57B16/N, mouse, plasma, iv, 1 mg/kg
[22] = female, C57B16/N, mouse, plasma, po, 10 mg/kg
[23] = female, C57B16/N, mouse, plasma, po, 50 mg/kg

CNc1cc(C)c(C(N)=O)cn1 [Compound 4, 4-methyl-6-(methylamino) nicotinamide]
IC50 ([1]; 40 nM recombinant human NNMT, 8 μM nicotinamide, 20 min, read-out: IC50, in vitro NNMT enzyme inhibition assay): 244 nM
IC50 ([1]; read-out: in vitro hNNMT IC50): 240 nM
IC50 [2, 13]: 16 nM
IC50 ([2]; K562 cells, 24 h, 1-MNA quantification, read-out: IC50, NNMT inhibition in K562 cells): 15 nM
NNMT inhibition in ovarian CAFs (1-MNA quantification) [3]: significantly inhibited NNMT
CAF markers in ovarian CAFs [4]: reduction in CAF markers
microsomal CLint at 2 μM [5]: < 5.42 µL/min/mg
half-life at 2 μM [5]: > 4.26 h
Remaining (%) at 60 min [5]: 94.54%
CLhep predicted at 2 μM [5]: < 5.12 mL/min/kg
CLint scaled at 2 μM [5]: < 6.79 mL/min/kg
microsomal CLint at 2 μM [6]: < 5.42 µL/min/mg
half-life at 2 μM [6]: > 4.26 h
Remaining (%) at 60 min [6]: 85.32%
CLhep predicted at 2 μM [6]: < 18.8 mL/min/kg
CLint scaled at 2 μM [6]: < 23.7 mL/min/kg
microsomal CLint at 2 μM [7]: < 5.42 µL/min/mg
half-life at 2 μM ([7]; 2 μM): > 4.26 h
Remaining (%) at 60 min ([7]; 60 min): 96.85%
CLhep predicted at 2 μM [7, 14]: < 5.12 mL/min/kg
CLint scaled at 2 μM ([7]; read-out: Scaled-up CLint): < 6.79 mL/min/kg
microsomal CLint at 2 μM [8]: < 5.42 µL/min/mg
half-life at 2 μM ([8]; 2 μM): > 4.26 h
Remaining (%) at 60 min ([8]; 60 min): 85.18%
CLhep predicted at 2 μM [8, 14]: < 18.8 mL/min/kg
CLint scaled at 2 μM ([8]; read-out: Scaled-up CLint): < 23.7 mL/min/kg
AUClast of 1-MNA [9, 15]: 792 ng·h/mL
Cmax of 1-MNA [9, 15]: 39.3 ng/mL
Tmax of 1-MNA [9, 15]: 16.7 h
AUClast of 1-MNA [9, 16]: 761 ng·h/mL
Cmax of 1-MNA [9, 16]: 42.4 ng/mL
Tmax of 1-MNA [9, 16]: 18.7 h
AUClast of 1-MNA [9, 17]: 678 ng·h/mL
Cmax of 1-MNA [9, 17]: 48.8 ng/mL
Tmax of 1-MNA [9, 17]: 24.0 h
Cl_obs [10, 18]: 62.8 mL/min/kg
Vss_obs [10, 18]: 0.786 L/kg
AUC_%Extrap_obs ([10]; IV 1 mg/kg, female C57B16/N mice, plasma): 1.63%
F_last ([10]; PO 10 mg/kg, female C57B16/N mice): 101%
AUC_%Extrap_obs [10, 19]: 0.194%
T1/2 [10, 19]: 1.11 h
F_last ([10]; PO 50 mg/kg, female C57B16/N mice): 222%
AUC_%Extrap_obs [10, 20]: 0.319%
AUClast [10, 20]: 30747 ng·h/mL
Cmax [10, 20]: 38900 ng/mL
T1/2 [10, 20]: 1.79 h
AUC(0-inf) [10, 21]: 278 ng·h/mL
AUC(0-t) [10, 21]: 273 ng·h/mL
C0 [10, 21]: 1190 ng/mL
MRT inf [10, 21]: 0.216 h
half-life [10, 21]: 0.174 h
AUC(0-inf) [10, 22]: 2810 ng·h/mL
AUC(0-t) [10, 22]: 2800 ng·h/mL
Cmax [10, 22]: 4000 ng/mL
MRT inf [10, 22]: 0.635 h
AUC(0-inf) [10, 23]: 30800 ng·h/mL
MRT inf [10, 23]: 0.695 h

CNc1cc(Cl)c(C(N)=O)cn1 [Compound 13]
IC50 ([1]; read-out: in vitro hNNMT IC50): 673 nM
IC50 [2, 13]: 106 nM
microsomal CLint at 2 μM [5]: < 5.42 µL/min/mg
half-life at 2 μM [5]: > 4.26 h
Remaining (%) at 60 min [5]: 110.09%
CLhep predicted at 2 μM [5]: < 5.12 mL/min/kg
CLint scaled at 2 μM [5]: < 6.79 mL/min/kg
microsomal CLint at 2 μM [6]: < 5.42 µL/min/mg
half-life at 2 μM [6]: > 4.26 h
Remaining (%) at 60 min [6]: 85.85%
CLhep predicted at 2 μM [6]: < 18.8 mL/min/kg
CLint scaled at 2 μM [6]: < 23.7 mL/min/kg

COc1ccc(C(N)=O)cn1 [JBSNF-000088]
IC50 ([1]; read-out: in vitro hNNMT IC50): 2400 nM
IC50 [11]: 1600 nM
IC50 [12]: 6300 nM

CNc1ccc(C(N)=O)cn1 [JBSNF-000265, reference compound]
IC50 [11]: 300 nM
IC50 [12]: 2100 nM
microsomal CLint at 2 μM [5]: ~6.84 µL/min/mg
half-life at 2 μM [5]: ~3.38 h
Remaining (%) at 60 min [5]: 81.72%
CLhep predicted at 2 μM [5]: ~6.06 mL/min/kg
CLint scaled at 2 μM [5]: ~8.57 mL/min/kg
microsomal CLint at 2 μM [6]: ~4.94 µL/min/mg
half-life at 2 μM [6]: ~4.67 h
Remaining (%) at 60 min [6]: 84.73%
CLhep predicted at 2 μM [6]: ~17.4 mL/min/kg
CLint scaled at 2 μM [6]: ~21.6 mL/min/kg
AUClast of 1-MNA [9, 17]: 799 ng·h/mL
Cmax of 1-MNA [9, 17]: 39.3 ng/mL
Tmax of 1-MNA [9, 17]: 6.7 h
AUC_%Extrap_obs [10, 20]: 0.0313%
AUC(0-inf) [10, 23]: 15500 ng·h/mL
AUC(0-t) [10, 23]: 15400 ng·h/mL
Cmax [10, 23]: 20900 ng/mL
MRT inf [10, 23]: 0.57 h
Tmax [10, 23]: 0.333 h
half-life [10, 23]: 1.06 h

CNc1cc(C)c(C(N)=O)cn1 [JBSNF-000581, reference compound]
IC50 ([1]; read-out: in vitro hNNMT IC50): 840 nM
